# Data: patent US20200009173A1, “TRIAZOLE-CONTAINING MACROLIDES AND OPHTHALMIC USES THEREFOR” (Tetard, Inc., priority 2017, published 2020)
# Like-named read-outs stand apart in the source and are kept apart here.
# Assays:
# Streptococcus pneumoniae = assay: MIC, Streptococcus pneumoniae (150 strains); format: cell-based
# Streptococcus pyogenes = assay: MIC, Streptococcus pyogenes; format: cell-based; conditions: Streptococcus pyogenes
# Haemophilus influenzae = assay: MIC, Haemophilus influenzae (100 strains); format: cell-based
# Legionella pneumophila = assay: microbe, parasite or virus in culture; format: cell-based
# Mycoplasma pneumoniae = assay: MIC, Mycoplasma pneumoniae (38 strains); format: cell-based
# P. Acnes = assay: MICs of solithromycin and comparator drugs against P. acnes; format: cell-based; conditions: Cutibacterium acnes; 51 species
# Description: EXAMPLE. The formulations described herein show overall higher potency against ocular pathogens than commercial standards. MICs (μg/ml) of Solithromycin and Comparator Drugs against P. Acnes (51 Species)
# S. pneumoniae = assay: MICs of solithromycin and comparator drugs, S. pneumoniae (30 species); format: cell-based
# Description: (§1) EXAMPLE. The formulations described herein show overall higher potency against ocular pathogens than commercial standards.
# (§2) MICs (μg/ml) of Solithromycin and Comparator Drugs against Bacterial Species
# H. influenzae = assay: MICs of solithromycin and comparator drugs, H. influenzae (30 species); format: cell-based
# Description: as §1, §2
# MSSA = assay: MICs of solithromycin and comparator drugs, MSSA (31 species); format: cell-based
# Description: as §1, §2
# MSRA = assay: MICs of solithromycin and comparator drugs, MSRA (30 species); format: cell-based
# Description: as §1, §2
# S. epidermidis = assay: MICs of solithromycin and comparator drugs, S. epidermidis (30 species); format: cell-based
# Description: as §1, §2
# Corynebacterium spp. = assay: MIC, Corynebacterium spp.; format: cell-based; conditions: Corynebacterium; N = 10
# Staphylococcus aureus = assay: MIC, Staphylococcus aureus; format: cell-based; conditions: N = 201
# CA-MRSA = assay: MIC, CA-MRSA; format: cell-based, Staphylococcus aureus; conditions: N = 30
# [1] = test system: Haemophilus parainfluenzae; assay: MIC, Haemophilus parainfluenzae; format: cell-based; conditions: N = 11
# Listeria monocytogenes = assay: MIC, Listeria monocytogenes; format: cell-based; conditions: N = 10
# Moraxella catarrhalis = assay: MIC, Moraxella catarrhalis; format: cell-based; conditions: N = 21
# Mycobacterium avium = assay: MIC, Mycobacterium avium; format: cell-based; conditions: Mycobacterium avium; N = 30
# Mycoplasma hominis = assay: MIC, Mycoplasma hominis; format: cell-based; conditions: N = 13
# Neisseria gonorrhoeae = assay: MIC, Neisseria gonorrhoeae; format: cell-based; conditions: N = 34
# Peptostreptococcus spp. = assay: MIC, Peptostreptococcus spp.; format: cell-based; conditions: Peptostreptococcus; N = 10
# Ureaplasma urealyticum = assay: MIC, Ureaplasma urealyticum; format: cell-based; conditions: N = 10
# [2] = test system: Viridans group streptococci; assay: MIC, Viridans group streptococci; format: cell-based; conditions: N = 51
# TNFα = TNFα production in LPS-stimulated PMA-differentiated U937 cells (ELISA); format: cell-based, human; conditions: concentration not given
# Description: (§3) EXAMPLE. […] Cells. The human monocytic cell line U937 was obtained from the American Type Culture Collection (ATCC, Rockville, Md.). PBMCs from COPD patients were obtained from Brompton hospital and separated by AccuSPIN (Sigma-Aldrich). […] U937 cells were differentiated into adherent macrophage-like morphology by exposure to PMA (50 ng/ml) for 48 h in complete growth medium. Cell viability was assessed microscopically by trypan blue staining. Cell toxicity was determined by MTT assay as needed. This study was approved by the ethics committee of the Royal Brompton Hospitals, and all subjects gave written informed consent. Cytokine ELISA. TNFα and IL-8 concentrations in the supernatant of cell cultures were determined by sandwich ELISA according to the manufacturer's instructions (R&D Systems Europe, Abingdon, UK). Statistical analysis. The results were expressed as the mean±SEM. Comparisons of data in two groups were performed using the Student's t test or the Wilcoxon signed rank test. Multiple comparisons were made by one-way ANOVA with post hoc test (Dunnett's) as appropriate. The difference was considered significant at p<0.05. […] Anti-inflammatory effects of solithromycin in U937 cells.
# CXCL8 = CXCL8 (IL-8) production in LPS-stimulated PMA-differentiated U937 cells (ELISA); format: cell-based, human; conditions: concentration not given
# Description: as §3
# MMP9 = MMP9 activity in PMA-stimulated U937 cells (gelatin zymography); format: cell-based, human
# Description: EXAMPLE. […] Cells. The human monocytic cell line U937 was obtained from the American Type Culture Collection (ATCC, Rockville, Md.). PBMCs from COPD patients were obtained from Brompton hospital and separated by AccuSPIN (Sigma-Aldrich). […] U937 cells were differentiated into adherent macrophage-like morphology by exposure to PMA (50 ng/ml) for 48 h in complete growth medium. Cell viability was assessed microscopically by trypan blue staining. Cell toxicity was determined by MTT assay as needed. This study was approved by the ethics committee of the Royal Brompton Hospitals, and all subjects gave written informed consent. Zymography. MMP9 enzyme activity was measured by gelatin zymography. […] After electrophoresis, gels were incubated and rinsed with Novex® zymogram renaturing buffer (Invitrogen) for 30 min at room temperature. The gels were then rinsed in Novex® zymogram developing buffer (Invitrogen) for 30 min at room temperature prior to overnight incubation in the developing buffer at 37° C. After incubation, the gels were stained using a Colloidal Blue Staining Kit (Invitrogen) to visualize the zymogen bands. Statistical analysis. The results were expressed as the mean±SEM. Comparisons of data in two groups were performed using the Student's t test or the Wilcoxon signed rank test. Multiple comparisons were made by one-way ANOVA with post hoc test (Dunnett's) as appropriate. The difference was considered significant at p<0.05.
compound,measurement,setting,value
"CC[C@H]1OC(=O)[C@H](C)[C@@H](O[C@H]2C[C@@](C)(OC)[C@@H](O)[C@H](C)O2)[C@H](C)[C@@H](O[C@@H]2O[C@H](C)C[C@H](N(C)C)[C@H]2O)[C@](C)(O)C[C@@H](C)CN(C)[C@H](C)[C@@H](O)[C@]1(C)O [Azithromycin, azithromycin]",MIC90,Streptococcus pneumoniae; N = 150,>16 µg/mL
same,MIC90,"Streptococcus pneumoniae; Streptococcus pneumoniae, 150 strains, read-out: MIC90",> 16 µg/mL
same,MIC50,"Streptococcus pneumoniae; Streptococcus pneumoniae, N = 150",> 16 µg/mL
same,MIC50,Streptococcus pyogenes,> 16 µg/mL
same,MIC90,Streptococcus pyogenes; 100 strains,> 16 µg/mL
same,MIC90,"Streptococcus pyogenes; N = 407 (CEM-101), N = 100 (azithromycin)",> 16 µg/mL
same,MIC90,"Haemophilus influenzae; Haemophilus influenzae, 100 strains, read-out: MIC90",2 µg/mL
same,MIC50,"Haemophilus influenzae; Haemophilus influenzae, N = 100",2 µg/mL
same,MIC90,Haemophilus influenzae; N = 100,2 µg/mL
same,MIC Range,Haemophilus influenzae; N = 100,0.25 to 4 µg/mL
same,MIC50,Legionella pneumophila; Legionella pneumophila,1 µg/mL
same,MIC90,Legionella pneumophila; Legionella pneumophila,2 µg/mL
same,MIC90,Legionella pneumophila; N = 30,2 µg/mL
same,MIC90,"Mycoplasma pneumoniae; Mycoplasma, 38 strains, read-out: MIC90",0.0005 µg/mL
same,MIC50,"Mycoplasma pneumoniae; Mycoplasma, N = 38",0.00025 µg/mL
same,MIC90,Mycoplasma pneumoniae; N = 38,0.0005 µg/mL
same,MIC50,P. Acnes,0.06 µg/mL
same,MIC90,P. Acnes,4 µg/mL
same,I (intermediate susceptibility),S. pneumoniae,3%
same,NS (not susceptible),S. pneumoniae,23%
same,S (susceptible),S. pneumoniae,73%
same,MIC50,S. pneumoniae; Streptococcus pneumoniae,0.06 µg/mL
same,MIC90,S. pneumoniae; Streptococcus pneumoniae,8 µg/mL
same,I (intermediate susceptibility),H. influenzae,0%
same,MIC Range,H. influenzae,1 to 4 µg/mL
same,NS (not susceptible),H. influenzae,0%
same,S (susceptible),H. influenzae,100%
same,MIC50,H. influenzae; Haemophilus influenzae,2 µg/mL
same,MIC90,H. influenzae; Haemophilus influenzae,2 µg/mL
same,I (intermediate susceptibility),MSSA,0%
same,NS (not susceptible),MSSA,39%
same,S (susceptible),MSSA,61%
same,MIC50,"MSSA; Staphylococcus aureus, MSSA",2 µg/mL
same,MIC90,"MSSA; Staphylococcus aureus, MSSA",> 32 µg/mL
same,MIC50,MSRA,> 32 µg/mL
same,MIC90,MSRA,> 32 µg/mL
same,I (intermediate susceptibility),MSRA; 30 species,0%
same,NS (not susceptible),MSRA; 30 species,90%
same,S (susceptible),MSRA; 30 species,10%
same,I (intermediate susceptibility),S. epidermidis,0%
same,NS (not susceptible),S. epidermidis,63%
same,S (susceptible),S. epidermidis,37%
same,MIC50,S. epidermidis; Staphylococcus epidermidis,> 32 µg/mL
same,MIC90,S. epidermidis; Staphylococcus epidermidis,> 32 µg/mL
same,MIC50,Corynebacterium spp.,> 16 µg/mL
same,MIC90,Corynebacterium spp.,> 16 µg/mL
same,MIC50,Staphylococcus aureus,> 16 µg/mL
same,MIC90,Staphylococcus aureus,> 16 µg/mL
same,MIC Range,CA-MRSA,>16 µg/mL
same,MIC50,"CA-MRSA; Staphylococcus aureus, MRSA",> 16 µg/mL
same,MIC90,"CA-MRSA; Staphylococcus aureus, MRSA",> 16 µg/mL
same,MIC50,[1]; Haemophilus parainfluenzae,1 µg/mL
same,MIC90,[1]; Haemophilus parainfluenzae,2 µg/mL
same,MIC Range,[1],0.5-2^ μg/mL
same,MIC50,Listeria monocytogenes; Listeria monocytogenes,0.5 µg/mL
same,MIC90,Listeria monocytogenes; Listeria monocytogenes,1 µg/mL
same,MIC Range,Listeria monocytogenes,0.5-1^ μg/mL
same,MIC50,Moraxella catarrhalis; Moraxella catarrhalis,0.03 µg/mL
same,MIC90,Moraxella catarrhalis; Moraxella catarrhalis,0.06 µg/mL
same,MIC Range,Moraxella catarrhalis,0.03 to 0.5 µg/mL
same,MIC50,Mycobacterium avium,16 µg/mL
same,MIC90,Mycobacterium avium,16 µg/mL
same,MIC Range,Mycoplasma hominis,0.5-4^ μg/mL
same,MIC Range,Neisseria gonorrhoeae,0.06 to 2 µg/mL
same,MIC50,Neisseria gonorrhoeae; Neisseria gonorrhoeae,0.25 µg/mL
same,MIC90,Neisseria gonorrhoeae; Neisseria gonorrhoeae,0.5 µg/mL
same,MIC50,Peptostreptococcus spp.,8 µg/mL
same,MIC90,Peptostreptococcus spp.,> 64 µg/mL
same,MIC Range,Ureaplasma urealyticum,0.5-4^ μg/mL
same,MIC50,Ureaplasma urealyticum; Ureaplasma urealyticum,2 µg/mL
same,MIC90,Ureaplasma urealyticum; Ureaplasma urealyticum,4 µg/mL
same,MIC50,[2],0.12 µg/mL
same,MIC90,[2],4 µg/mL
same,MIC Range,[2],≤0.008-16 ^ μg/mL
same,effect on TNFα production,TNFα,did not inhibit
same,effect on IL-8 production,CXCL8,did not inhibit
same,"inhibitory effect on MMP9 activity, lower than solithromycin",MMP9,10 fold
